Test results: PubChem BioAssay AID1259408 (Genetic Toxicology Data Bank (GENE-TOX), 2018)
Activity calls are given as the source filed them. No rule for the calls is given here.

Tested on: GENE-TOX genotoxicity assays, various organisms and cells
Assay: GENE-TOX mutagenicity studies
Conditions: for call: Assay Type: In vivo carcinogenicity studies
[1] = Species/Cell Type: Saccharomyces cerevisiae, Assay Type: Mitotic recombination or gene conversion, Assay Code: YEH-, Evaluation Type: Evaluation A (Pre-1980)
[2] = Species/Cell Type: Vicia faba, Assay Type: Chromosome aberrations, Assay Code: VIC+D, Dose Response: With dose response, Evaluation Type: Evaluation A (Pre-1980)
[3] = Species/Cell Type: Escherichia coli polA (W3119 vs P3478), Assay Type: Rec-assay, DNA effects (bacterial DNA repair), Assay Code: RE1+, Evaluation Type: Evaluation A (Pre-1980)
[4] = Species/Cell Type: Fischer rat embryo (RLV/1706) cells, Assay Type: Cell transformation, viral enhanced, Assay Code: CTR+, Evaluation Type: Evaluation A (Pre-1980)
[5] = Species/Cell Type: Human lymphocytes, Assay Type: Sister-chromatid exchange (SCE) in vitro, Assay Code: SCL+D, Dose Response: With dose response, Evaluation Type: Evaluation B (Post-1980)
[6] = Species/Cell Type: Human, Assay Type: Sister-chromatid exchange (SCE) in vitro, Assay Code: SC1+D, Dose Response: With dose response, Evaluation Type: Evaluation B (Post-1980)
[7] = Species/Cell Type: Nonhuman, Assay Code: CCG+, Evaluation Type: Evaluation A (Pre-1980)
[8] = Species/Cell Type: Salmonella typhimurium (one or more of the five standard strains: TA98, TA100, TA1535, TA1537, and TA1538), Assay Type: Histidine reverse gene mutation, Ames assay, Assay Code: SAL+, Evaluation Type: Evaluation A (Pre-1980)
[9] = Species/Cell Type: Nonhuman, Assay Type: Sister-chromatid exchange (SCE) in vitro, Assay Code: SC2+D, Dose Response: With dose response, Evaluation Type: Evaluation B (Post-1980)
[10] = Species/Cell Type: Salmonella typhimurium (one or more of the five standard strains: TA98, TA100, TA1535, TA1537, and TA1538), Assay Type: Histidine reverse gene mutation, Ames assay, Assay Code: SALT, Evaluation Type: Evaluation A (Pre-1980)
[11] = Species/Cell Type: Human, Assay Type: Sister-chromatid exchange (SCE) in vitro, Assay Code: SC1T, Evaluation Type: Evaluation B (Post-1980)

For `O=C(O)c1ccccc1`, which mutagenic call (Species/Cell Type: Escherichia coli WP2, Assay Type: Tryptophan reverse gene mutation, Assay Code: WP2-*, Activation: With metabolic activation, Evaluation Type: Evaluation A (Pre-1980)) is on record?
The mutagenic call was “inactive; negative”.

What about the mutagenic call (Species/Cell Type: Escherichia coli WP2 UVRA, Assay Type: Tryptophan reverse gene mutation, Assay Code: WPU-*, Activation: With metabolic activation, Evaluation Type: Evaluation A (Pre-1980)) of the same compound?
Its mutagenic call is “inactive; negative”.

What about the mutagenic call (Species/Cell Type: Human, Assay Type: Sister-chromatid exchange (SCE) in vitro, Assay Code: SC1+, Evaluation Type: Evaluation B (Post-1980)) of the same compound?
Its mutagenic call is “active; positive”.

What about the mutagenic call [1] of the same compound?
The mutagenic call was “inactive; negative”.

What about the mutagenic call (Species/Cell Type: Salmonella typhimurium (one or more of the five standard strains: TA98, TA100, TA1535, TA1537, and TA1538), Assay Type: Histidine reverse gene mutation, Ames assay, Assay Code: SAL-, Evaluation Type: Evaluation A (Pre-1980)) of the same compound?
Its mutagenic call is “inactive; negative”.

`CC(=O)C(NC(=O)C(C)C(O)C(C)NC(=O)C(NC(=O)c1nc(C(CC(N)=O)NCC(N)C(N)=O)nc(N)c1C)C(O[C@@H]1O[C@@H](CO)[C@@H](O)[C@H](O)[C@]1(C)O[C@@H]1OC(CO)[C@H](O)[C@](O)(C(N)=O)[C@H]1O)c1cnc[nH]1)C(=O)NCCC1=NC(c2nc(C(N)=O)cs2)CS1` (stereo not given in full) was tested. Which mutagenic call (Species/Cell Type: Mammalian oocytes or early embryo, Assay Type: Chromosome aberrations in vivo, Assay Code: CYO+, Evaluation Type: Evaluation A (Pre-1980)) did it give?
Its mutagenic call is “active; positive”.

What about the mutagenic call [2] of the same compound?
The mutagenic call was “active; positive”.

Which results are given for `CC(C)O`?
mutagenic call (Species/Cell Type: Neurospora crassa, Assay Type: Aneuploidy, chromosome aberrations, Assay Code: NEN-, Evaluation Type: Evaluation A (Pre-1980)): inactive; negative; mutagenic call (Species/Cell Type: Syrian hamster embryo (SA7/SHE) cells, Assay Type: Cell transformation, viral enhanced, Assay Code: CT7-, Evaluation Type: Evaluation A (Pre-1980)): inactive; negative

`COc1ccc(/C=N/NC(=O)c2ccncc2)c(C(=O)O)c1OC` was tested. Which mutagenic call (Species/Cell Type: Salmonella typhimurium, Assay Type: Forward and reverse gene mutation, host-mediated assay, Assay Code: HMA-, Evaluation Type: Evaluation A (Pre-1980)) did it give?
The mutagenic call was “inactive; negative”.

Which mutagenic call (Species/Cell Type: Salmonella typhimurium (one or more of the five standard strains: TA98, TA100, TA1535, TA1537, and TA1538), Assay Type: Histidine reverse gene mutation, Ames assay, Assay Code: SAL+*, Activation: With metabolic activation, Evaluation Type: Evaluation A (Pre-1980)) does the source give for `c1ccc2c(c1)CCc1cc3ccc4c(c3cc1-2)CCCC4` here?
The mutagenic call was “active; positive”.

With `C1OC1C1CO1` (stereo not given) as the compound, how does the mutagenic call (Species/Cell Type: Aspergillus nidulans, Assay Type: Forward gene mutation, Assay Code: ASF+, Evaluation Type: Evaluation A (Pre-1980)) read?
The mutagenic call was “active; positive”.

What about the mutagenic call (Species/Cell Type: Aspergillus nidulans, Assay Type: Mitotic recombination, Assay Code: ASG+, Evaluation Type: Evaluation A (Pre-1980)) of the same compound?
Its mutagenic call is “active; positive”.

What about the mutagenic call (Species/Cell Type: Drosophila melanogaster, Assay Type: Sex-linked recessive lethal gene mutation, Assay Code: SRL+, Evaluation Type: Evaluation A (Pre-1980)) of the same compound?
Its mutagenic call is “active; positive”.

What about the mutagenic call (Species/Cell Type: Drosophila melanogaster, Sex: Male, Assay Type: Heritable translocation test, chromosome aberrations, Assay Code: DHT+, Evaluation Type: Evaluation A (Pre-1980)) of the same compound?
The mutagenic call was “active; positive”.

What about the mutagenic call [3] of the same compound?
The mutagenic call was “active; positive”.

What about the mutagenic call [4] of the same compound?
Its mutagenic call is “active; positive”.

What about the mutagenic call (Species/Cell Type: Glycine max (soybean), Assay Type: Gene mutation, Assay Code: GLM+, Evaluation Type: Evaluation A (Pre-1980)) of the same compound?
Its mutagenic call is “active; positive”.

And the mutagenic call (Species/Cell Type: Hordeum vulgare (barley), Assay Type: Chromosome aberrations, Assay Code: HOC+, Evaluation Type: Evaluation A (Pre-1980))?
The mutagenic call was “active; positive”.

And the mutagenic call [5]?
The mutagenic call was “active; positive”.

What about the mutagenic call [6] of the same compound?
Its mutagenic call is “active; positive”.

And the mutagenic call (Species/Cell Type: Mouse (BALB/c-3T3) cells, Assay Type: Cell transformation, Assay Code: CTB+D, Dose Response: With dose response, Evaluation Type: Evaluation A (Pre-1980))?
Its mutagenic call is “active; positive”.

And the mutagenic call (Species/Cell Type: Neurospora crassa, Assay Type: Forward gene mutation, Assay Code: NEF+, Evaluation Type: Evaluation A (Pre-1980))?
Its mutagenic call is “active; positive”.

What about the mutagenic call (Species/Cell Type: Neurospora crassa, Assay Type: Reverse gene mutation, Assay Code: NER+, Evaluation Type: Evaluation A (Pre-1980)) of the same compound?
Its mutagenic call is “active; positive”.

And the call [7]?
Its call is “active; positive”.

And the mutagenic call (Species/Cell Type: Nonhuman, Assay Type: Sister-chromatid exchange (SCE) in vitro, Assay Code: SC2+D, Dose Response: With dose response, Evaluation Type: Evaluation A (Pre-1980))?
Its mutagenic call is “active; positive”.

What about the mutagenic call (Species/Cell Type: Nonhuman, Assay Type: Sister-chromatid exchange (SCE) in vivo, Assay Code: SC3+D, Dose Response: With dose response, Evaluation Type: Evaluation B (Post-1980)) of the same compound?
The mutagenic call was “active; positive”.

What about the mutagenic call (Species/Cell Type: Saccharomyces cerevisiae, Assay Type: Mitotic recombination or gene conversion, Assay Code: YEC+, Evaluation Type: Evaluation A (Pre-1980)) of the same compound?
The mutagenic call was “active; positive”.

What about the mutagenic call (Species/Cell Type: Saccharomyces cerevisiae, Assay Type: Mitotic recombination or gene conversion, Assay Code: YEH+, Evaluation Type: Evaluation A (Pre-1980)) of the same compound?
The mutagenic call was “active; positive”.

What about the mutagenic call (Species/Cell Type: Saccharomyces cerevisiae, Assay Type: Reverse gene mutation, Assay Code: YER+, Evaluation Type: Evaluation A (Pre-1980)) of the same compound?
Its mutagenic call is “active; positive”.

And the mutagenic call [8]?
The mutagenic call was “active; positive”.

And the mutagenic call (Species/Cell Type: Salmonella typhimurium, Assay Type: Forward and reverse gene mutation, host-mediated assay, Assay Code: HMA+, Evaluation Type: Evaluation A (Pre-1980))?
The mutagenic call was “active; positive”.

What about the mutagenic call (Species/Cell Type: Schizosaccharomyces pombe, Assay Type: Reverse gene mutation, Assay Code: YEZ+, Evaluation Type: Evaluation A (Pre-1980)) of the same compound?
Its mutagenic call is “active; positive”.

And the mutagenic call (Species/Cell Type: Syrian hamster embryo (SHE) cells, Assay Type: Cell transformation, clonal assay, Assay Code: CTC+D, Dose Response: With dose response, Evaluation Type: Evaluation A (Pre-1980))?
Its mutagenic call is “active; positive”.

And the mutagenic call [2]?
Its mutagenic call is “active; positive”.

How did the mutagenic call [3] turn out when `Cc1ccccc1N` was run?
Its mutagenic call is “active; positive”.

What about the mutagenic call [4] of the same compound?
The mutagenic call was “active; positive”.

And the mutagenic call (Species/Cell Type: Mammalian polychromatic erythrocytes, Assay Type: Micronucleus test, chromosome aberrations, Assay Code: MNTT, Evaluation Type: Evaluation A (Pre-1980))?
Its mutagenic call is “no conclusion”.

And the mutagenic call (Species/Cell Type: Mouse, Sex: Male, Assay Type: Sperm morphology, Assay Code: SPI-, Evaluation Type: Evaluation A (Pre-1980))?
Its mutagenic call is “inactive; negative”.

What about the call [7] of the same compound?
The call was “active; positive”.

What about the mutagenic call [9] of the same compound?
Its mutagenic call is “active; positive”.

And the mutagenic call (Species/Cell Type: Nonhuman, Assay Type: Sister-chromatid exchange (SCE) in vivo, Assay Code: SC3+, Evaluation Type: Evaluation B (Post-1980))?
The mutagenic call was “active; positive”.

And the mutagenic call [1]?
Its mutagenic call is “inactive; negative”.

What about the mutagenic call [10] of the same compound?
The mutagenic call was “no conclusion”.

With `CC1(C)[C@@H](O[C@H]2O[C@H](C(=O)O)[C@@H](O)[C@H](O)[C@H]2O[C@@H]2O[C@H](C(=O)O)[C@@H](O)[C@H](O)[C@H]2O)CC[C@]2(C)[C@H]3C(=O)C=C4[C@@H]5C[C@@](C)(C(=O)O)CC[C@]5(C)CC[C@@]4(C)[C@]3(C)CC[C@@H]12` as the compound, how does the mutagenic call [11] read?
The mutagenic call was “no conclusion”.

With `CC(C)C[C@H](NC(=O)[C@@H](O)[C@H](N)Cc1ccccc1)C(=O)O` as the compound, how does the mutagenic call [11] read?
The mutagenic call was “no conclusion”.

`Cc1occc(=O)c1O` was tested. Which mutagenic call [5] did it give?
The mutagenic call was “active; positive”.

And the mutagenic call [6]?
Its mutagenic call is “active; positive”.

How did the mutagenic call (Species/Cell Type: Saccharomyces cerevisiae, Assay Type: Mitotic recombination or gene conversion, Assay Code: YEC-, Evaluation Type: Evaluation A (Pre-1980)) turn out when `CCNc1nc(NC(C)C)nc(SC)n1` was run?
Its mutagenic call is “inactive; negative”.

Which mutagenic call (Species/Cell Type: Chinese hamster lung (V79) cells, Assay Type: Forward gene mutation at the HPRT or ouabain locus, Assay Code: V79+, Evaluation Type: Evaluation A (Pre-1980)) does the source give for `Cc1ccc2cc3c(ccc4ccccc43)c3c2c1C(O)C3` (stereo not given) here?
Its mutagenic call is “active; positive”.

And the call (Species/Cell Type: Nonhuman, Assay Code: CCG+L, Evaluation Type: Evaluation A (Pre-1980))?
The call was “active; positive”.

And the mutagenic call [10]?
Its mutagenic call is “no conclusion”.

What does the source list for `Oc1ccccc1O`?
mutagenic call (Species/Cell Type: Allium cepa, Assay Type: Chromosome aberrations, Assay Code: ALC+, Evaluation Type: Evaluation A (Pre-1980)): active; positive; mutagenic call [5]: active; positive; mutagenic call [6]: active; positive; mutagenic call (Species/Cell Type: Mammalian polychromatic erythrocytes, Assay Type: Micronucleus test, chromosome aberrations, Assay Code: MNTT, Evaluation Type: Evaluation B (Post-1980)): no conclusion

For `COCCOC1=C(N2CC2)C(=O)C(OCCOC)=C(N2CC2)C1=O`, which mutagenic call (Species/Cell Type: Drosophila melanogaster, Assay Type: Sex-linked recessive lethal gene mutation, Assay Code: SRLT, Evaluation Type: Evaluation A (Pre-1980)) is on record?
The mutagenic call was “no conclusion”.

And the mutagenic call [9]?
The mutagenic call was “active; positive”.

Which mutagenic call [8] does the source give for `CC#CC(OC(=O)NC1CCCCC1)(c1ccccc1)c1ccccc1` here?
The mutagenic call was “active; positive”.

For `FC(F)(Cl)Cl`, which mutagenic call (Species/Cell Type: Tradescantia species, Assay Type: Gene mutation, Assay Code: TRM-, Evaluation Type: Evaluation A (Pre-1980)) is on record?
Its mutagenic call is “inactive; negative”.

What does the source list for `C=CCc1ccccc1O`?
mutagenic call (Species/Cell Type: Human lymphocytes, Assay Type: Sister-chromatid exchange (SCE) in vitro, Assay Code: SCLT, Evaluation Type: Evaluation B (Post-1980)): no conclusion; mutagenic call [11]: no conclusion

With `c1cc2ccc3ccc4ccc5cccc6c(c1)c2c3c4c56` as the compound, how does the mutagenic call [10] read?
The mutagenic call was “no conclusion”.

With `NC[C@H]1O[C@H](O[C@H]2[C@H](O)[C@@H](O[C@H]3O[C@H](CO)[C@@H](O)[C@H](N)[C@H]3O)[C@H](N)C[C@@H]2N)[C@H](N)C[C@@H]1O` as the compound, how does the mutagenic call [1] read?
The mutagenic call was “inactive; negative”.

For `c1ncc2[nH]cnc2n1`, which mutagenic call (Species/Cell Type: Escherichia coli polA (W3119 vs P3478), Assay Type: Rec-assay, DNA effects (bacterial DNA repair), Assay Code: RE1-, Evaluation Type: Evaluation A (Pre-1980)) is on record?
The mutagenic call was “inactive; negative”.
